Source: patent publication US20040039052A1, “Urinary incontinence therapy” (priority 1997, published 2004)
Marks after values point to notes of the source that are not given here.

Tests used:
[1] = test system: patients with MS (detrusor hyperreflexia); experiment: separate study: RTX instillation in patients with MS; assay type: in vivo, human; design: LVA Lost volume after RTX / CAPA Capacity after RTX: unit not given here
[2] = test system: patients with MS (detrusor hyperreflexia); experiment: as above; assay type: in vivo, human
Procedure: A separate study was undertaken with administration of 0.1 μM RTX to a group of 6 patients with MS. […] One patient was bedridden with an indwelling catheter. Despite the catheter, occasional bursts of detrusor hyperreflexia caused explosive expulsions of urine such that urine leaked around the catheter. No urinary dynamic measurements were taken but 100 ml of 1 μM solution was administered. […] The remaining four patients were all on crutches or in wheelchairs. They were on scheduled intermittent self-catheterizations and remained so.

[3] = test system: normal human volunteers and patients with unstable detrusor; settings: 10^−8M (0.01 μM) RTX intravesicular, cited from earlier work
rats = settings: cited from earlier work
[4] = four MS patients, one month after treatment

C=C(C)[C@]12C[C@@H](C)[C@@]34O[C@](Cc5ccccc5)(O[C@@H]1[C@@H]3C=C(COC(=O)Cc1ccc(O)c(OC)c1)C[C@]1(O)C(=O)C(C)=C[C@@H]41)O2 [RTX, resiniferatoxin]
CAPA Capacity after RTX ([1]; Patient 6, Dose 500 nM, one month after treatment, CAPB before RTX 200): 360 | DA Drug after RTX ([1]; Patient 6, Dose 500 nM, one month after treatment, DB before RTX 2): 01 | LVA Lost volume after RTX ([1]; Patient 6, Dose 500 nM, one month after treatment, LVB before RTX 60): 10 | ULPA Urine loss pressure after RTX ([1]; Patient 6, Dose 500 nM, one month after treatment, ULPB before RTX 96): 40 | LVA Lost volume after RTX ([1]; Patient 7 (stress incontinent), Dose 500 nM, one month after treatment, LVB 100): 80* | CAPA Capacity after RTX ([1]; Patient 7, Dose 500 nM, one month after treatment, CAPB 180): 750 | DA Drug after RTX ([1]; Patient 7, Dose 500 nM, one month after treatment, DB 2): 1 | ULPA Urine loss pressure after RTX ([1]; Patient 7, Dose 500 nM, one month after treatment, ULPB 63): 36 | CAPA Capacity after RTX ([1]; Patient 9, Dose 1000 nM, one month after treatment, CAPB 100): 300 | DA Drug after RTX ([1]; Patient 9, Dose 1000 nM, one month after treatment, DB 2): 2 | LVA Lost volume after RTX ([1]; Patient 9, Dose 1000 nM, one month after treatment, LVB 180): 0 | ULPA Urine loss pressure after RTX ([1]; Patient 9, Dose 1000 nM, one month after treatment, ULPB 32): 30 | CAPA Capacity after RTX ([1]; Patient 10, Dose 1000 nM, one month after treatment, CAPB 280): 460 | DA Drug after RTX ([1]; Patient 10, Dose 1000 nM, one month after treatment, DB 2): 2 | LVA Lost volume after RTX ([1]; Patient 10, Dose 1000 nM, one month after treatment, LVB 180): 0 | ULPA Urine loss pressure after RTX ([1]; Patient 10, Dose 1000 nM, one month after treatment, ULPB 46): 44 | urge and leakage around indwelling catheter ([1]; bedridden MS patient, 100 ml of 1 μM solution, six weeks): no urge and no leakage | Urinary loss [1, 4]: decreased after instillation of RTX in all four patients | side effects ([2]; even at a dose of 1.0 μM RTX): No side effects, particularly no meaningful burning or irritation were observed | Capacity [2, 4]: increased in all patients | urine loss pressure [2, 4]: decreased in all four although minimally in two | sensations upon administration ([3]; human subjects): no micturition reflex or burning upon administration | volume required to elicit first desire to void ([3]; patients having unstable detrusor): Three of five patients having unstable detrusor reported an increased volume | pain upon intravesical administration (rats): pain induced by intravesical administration of RTX
